For 1 compound, Kd results are on record in PMC10831120, “Nitric oxide synthase-guided genome mining identifies a cytochrome P450 enzyme for olefin nitration in bacterial specialized metabolism” (Synthetic and Systems Biotechnology, 2024).

The target of the assay is T1, Laj2 (cytochrome P450).
T1 construct: His6-tagged Laj2 (405 aa), expressed in E. coli
As to the kind of experiment: UV-vis difference spectral titration (type I binding spectra), one-site fit; nitration turnover also shown by LC-MS. Further details: species or system Streptomyces qinglanensis.

As to `C/C=C(C)/C=C/C=C\C=C(\C)C(O)C(C)(C)C(=O)NC/C=C/C=C/C(O)C(C)CC(OC)C1(O)C(C)C(=O)N(C)C12COC2=O` (stereo not shown) [compound 4, denitrolajollamycin], the Kd (in general, a measure of binding affinity in units of concentration) was approximately 60 µM.
